# Patent publication US20220159969A1, “COMPOSITION AND METHOD FOR ENHANCING SPORE GERMINATION AND BIOLOGICAL EFFICACY” (priority 2019, published 2022)
# Experiments:
# Format in all cases: in vivo
# [1] = system: Botrytis cinerea; test: Greenhouse control of Botrytis cinerea on tomato plants (Example 2); settings: Prestop® 0.003% combined with glycine betaine 0.05% or 0.2%, 5 days, necrotic area width, FIG. 3
# Description: Botrytis cinerea was grown on potato dextrose broth for 1 to 2 weeks without shaking. The resulting mycelial and spores were recovered to produce a liquid inoculum.
# Tomato plants, variety Admiro (stage: 3-leaf), were sprayed with the B. cinerea inoculum (5000 sp/ml) then allowed to dry. Then, the treatments were applied by spraying the inoculated tomato plants.
# The following treatments were tested (9 repetitions): (T1) Prestop® (C. rosea f. catenulatum J1446) 0.003%; (T2) Prestop® (C. rosea f. catenulatum J1446) 0.003%+glycine betaine (Intracell®, Lallemand) 0.05%; (T3) Prestop® (C. rosea f. catenulatum J1446) 0.003%+glycine betaine (Intracell®, Lallemand) 0.2%; (T4) glycine betaine (Intracell®, Lallemand) 0.2% and (T5) water.
# Colby's equation was used to determine the effects expected from the components, as described above. The results were measured at 5 days after the application of the components.
# [2] = system: C. rosea f. catenulata J1446 spores; test: Percent germination of C. rosea f. catenulata J1446 on strawberry leaf discs; settings: after 24 h on strawberry leaf discs; germinant added to Prestop® 0.025% (glycine betaine 0.06%/0.6%, yeast extract 0.04%/0.2%) vs Prestop® alone; FIG. 1
# Description: (§1) Young strawberry plants (Fragaria×ananassa; “Merced” variety) were allowed to grow at least a week before plants were selected for experiments by healthy appearance and having large leaves facing upwards. Spore counts for C. rosea f. catenulata J1446 in the package of Prestop WG used were calculated via haemocytometer to be 1.4×10^10 spores/g and viability of the spores was checked using the MPN (most probably number) method and C. rosea f. catenulata J1446 was calculated to be 3×10^9 CFU/g. […] On average, 0.5 ml of treatment was calculated to be applied per plant. […] The number of spores obtained from each slip was counted using a hemocytometer to determine deposition rate. […]
# On the same day, after spraying, two 6 mm leaf discs were cut using a sterilized staples hole punch from two different leaves per plant from five sprayed strawberry plants per treatment group per time period (6, 7, 8 and 24 h) and then dyed with 5 ul lactophenol cotton blue. […] Three viewing areas were chosen at random on each leaf disc and 100 spores were counted: the number that germinated (germ tubes visible at twice the length of the spore) out of that 100 was recorded. Average germination percentages were analyzed per treatment group and per time period.
# Data for percent germination assays on strawberry leaves was normal when the distribution was analyzed for both greenhouse and environmental chamber studies. […]
# [3] = system: C. rosea f. catenulata J1446; test: Hyphal growth of C. rosea f. catenulata J1446 from strawberry leaf discs onto agar plates (greenhouse); settings: discs cut 1, 2, 3, 6 days after greenhouse incubation, growth on plate 6 days; germinant added to Prestop® 0.025%; FIG. 2
# Description: as §1
# Two 6 mm leaf discs were cut using a sterilized staples hole punch from two different leaves per plant from five sprayed plants per treatment per time period (1, 2, 3, and 6 days after spraying) and placed adaxial side downwards onto paraquat-chloramphenicol agar (PCA) medium (0.1 mL paraquat, 200 mg chloramphenicol, and 12 g agar per liter of water). […] Growth around the leaf disc was measured with a ruler and recorded as average diameter of growth per day. […] Averages in treatments were analyzed.
# Data for growth bioassays from 1, 2, 3, and 6 days of greenhouse incubation were all normal when distribution was analysed. […] Multiple comparisons of the mean (alpha=0.05) were analysed using a Tukey post hoc test.
# [4] = system: apple scab (Venturia inaequalis); test: Apple scab foliar symptoms on potted Gala apple trees (Example 6)
# Description: The trial was carried out on potted trees of the Gala variety. Six trees per treatment were reserved for this test.
# Two application strategies were tested: (a) one application four days before pathogen inoculation; and (b) a first application four days before pathogen inoculation and a second application after pathogen inoculation when a cumulative of 300° C./hour was reached after the inoculation.
# A solution of conidia of V. inaequalis was prepared from 2018 scabbed leaves stored in the freezer. The trees were kept under fog for at least one hour before contamination and then at least 12 hours afterwards. The duration was adapted according to ambient temperature and humidity. The spray volume was defined after a blank test to cover sufficient vegetation without reaching the runoff point (between 30 and 50 mL/tree). The treatments were applied using a hand-held sprayer and carried out four days before inoculation with the pathogen (strategies (a) and (b)) and within 300° C./H after inoculation for strategy (2) only.
# The frequency and intensity of foliar symptoms of scab were observed. Observation was carried out four to five days after the start of the first spots, using a 0 to 4 rating scale. Trees were scored individually and were made on all the leaves of each tree.
structure (smiles),measurement,setting,value
C[N+](C)(C)CC(=O)[O-] [glycine betaine],efficacy of Prestop® to control B. cinerea,[1],increased
same,percentage of spore germination of C. rosea J1446,[2],increased
same,colonization of leaf discs by C. rosea J1446,[3],significantly increased
same,Frequency of foliar symptoms of scab,[4]; one application four days before inoculation + a second application after inoculation when a cumulative of 300° C./hour was reached,58.5%
same,Frequency of foliar symptoms of scab,[4]; one application four days before inoculation with the pathogen,59.6%
